Assay results from publication PMC13288994, “Identification and characterization of novel chikungunya virus polymerase inhibitors” (Journal of Virology, 2026).
Where two headings read alike, the source gives them in different places.

Experiments:
[1] = system: CHIKV-nLuc (181/25 strain); test: microbe, parasite or virus in culture; assay type: cell-based, Chikungunya virus; conditions: 5 µM, 384-well format, read 20 h after infection
VEEV-TC83-nLuc = test: microbe, parasite or virus in culture; assay type: cell-based; conditions: read-out: Antiviral potency (EC50 [µM]) VEEV
SINV-GLuc = test: microbe, parasite or virus in culture; assay type: cell-based; conditions: VeroE6 cells; read-out: Antiviral potency (EC50 [µM]) SINV
HPIV3-nLuc = test: microbe, parasite or virus in culture; assay type: cell-based; conditions: VeroE6 cells; read-out: Antiviral potency (EC50 [µM]) HPIV3
SARS-CoV-2-nLuc = test: microbe, parasite or virus in culture; assay type: cell-based; conditions: VeroE6-TMPRSS2 cells; read-out: Antiviral potency (EC50 [µM]) SARS-CoV-2
RSV A2-L19F = test: microbe, parasite or virus in culture; assay type: cell-based; conditions: Hep-2 cells; read-out: Antiviral potency (EC50 [µM]) RSV
VSV-nLuc = test: microbe, parasite or virus in culture; assay type: cell-based; conditions: read-out: Antiviral potency (EC50 [µM]) VSV
CHIKV-nLuc [2] = test: microbe, parasite or virus in culture; assay type: cell-based, Chikungunya virus; conditions: MOI 0.1 FFU/cell, 24 hpi, in-house synthesized compound; read-out: EC50 CHIKV-nLuc, U-2 OS
CHIKV-nLuc [3] = test: microbe, parasite or virus in culture; assay type: cell-based, Chikungunya virus; conditions: MOI 0.1 FFU/cell, 24 hpi, in-house synthesized compound; read-out: EC50 CHIKV-nLuc, NHDF
U-2 OS cells [4] = test: Cytotoxicity assay (PrestoBlue, 24 h) in U-2 OS cells; assay type: cell-based, Human
NHDF cells = test: Cytotoxicity assay (PrestoBlue, 24 h) in NHDF cells; assay type: cell-based, Human
Description: NHDF cells were seeded at 10,000 cells per well in 24-well plates and cultured for 24 h. Cells were then treated with threefold serial dilutions of compounds starting at 500 µM and incubated for 24 h. DMSO was included as a negative control for normalization. Following treatment, cells were incubated with PrestoBlue reagent (ThermoFisher Scientific) for 1 h at 37°C, and fluorescence was measured using a PerkinElmer Victor X5 multilabel plate reader. The CC50 values were determined by normalized non-linear regression with a variable slope model in Prism (GraphPad).

CHIKV 181/25 = test: Virus yield dose-response in U-2 OS cells, CHIKV; assay type: cell-based, Chikungunya virus
ONNV = test: organism not typed; assay type: cell-based, o'nyong-nyong virus; conditions: read-out: EC50 virus production, ONNV
RRV = test: microbe, parasite or virus in culture; assay type: cell-based, Ross River virus; conditions: read-out: EC50 virus production, RRV
SINV = test: microbe, parasite or virus in culture; assay type: cell-based, Sindbis virus; conditions: read-out: EC50 virus production, SINV
MAYV = test: microbe, parasite or virus in culture; assay type: cell-based, Mayaro virus; conditions: read-out: EC50 virus production, MAYV
SFV = test: microbe, parasite or virus in culture; assay type: cell-based, Semliki Forest virus; conditions: read-out: EC50 virus production, SFV
[5] = target: T1, CHIKV trans-replicase (P1234) (Chikungunya virus, UniProt Q8JUX6); test: Trans-replicase assay, CHIKV; assay type: cell-based; conditions: 100 µM, U-2 OS, 20 h
T1 construct: expression of the P1234 polyprotein drives replication of a reporter RNA template; expressed in transfected cells; host or cells: U-2 OS
Description: (§1) U-2 OS cells were seeded at 75,000 cells per well in 24-well plates and cultured for 24 h. Cells were then co-transfected with 250 ng of plasmid encoding template RNA and 250 ng of plasmid encoding P1234 WT ([72], [73]), using Lipofectamine LTX with PLUS reagent (ThermoFisher Scientific) following the manufacturer’s instructions. After 4 h of post-transfection, medium containing 100 µM of compounds or DMSO was added to the cells. Cells were then incubated for 20 h, lysed, and GLuc activity was quantified using the Dual-Luciferase Reporter Assay System (Promega). Luciferase activities were normalized to those of the DMSO-treated controls.

[6] = target: T2, ONNV trans-replicase (P1234) (O'nyong-nyong virus, UniProt P13886); test: Trans-replicase assay, ONNV; assay type: cell-based; conditions: 100 µM, U-2 OS, 20 h
T2 construct: expression of the P1234 polyprotein drives replication of a reporter RNA template; expressed in transfected cells; host or cells: U-2 OS
Description: as §1

[7] = target: T3, RRV trans-replicase (P1234) (Ross river virus, UniProt P13887); test: Trans-replicase assay, RRV; assay type: cell-based; conditions: 100 µM, U-2 OS, 20 h
T3 construct: expression of the P1234 polyprotein drives replication of a reporter RNA template; expressed in transfected cells; host or cells: U-2 OS
Description: as §1

[8] = target: T4, SINV trans-replicase (P1234) (Sindbis virus, UniProt P03317); test: Trans-replicase assay, SINV; assay type: cell-based; conditions: 100 µM, U-2 OS, 20 h
T4 construct: expression of the P1234 polyprotein drives replication of a reporter RNA template; expressed in transfected cells; host or cells: U-2 OS
Description: as §1

[9] = target: T5, SFV trans-replicase (P1234) (Semliki forest virus, UniProt P08411); test: Trans-replicase assay, SFV; assay type: cell-based; conditions: 100 µM, U-2 OS, 20 h
T5 construct: expression of the P1234 polyprotein drives replication of a reporter RNA template; expressed in transfected cells; host or cells: U-2 OS
Description: as §1

[10] = target: T6, BFV trans-replicase (P1234) (Barmah forest virus, UniProt P87515); test: Trans-replicase assay, BFV; assay type: cell-based; conditions: 100 µM, U-2 OS, 20 h
T6 construct: expression of the P1234 polyprotein drives replication of a reporter RNA template; expressed in transfected cells; host or cells: U-2 OS
Description: as §1

[11] = target: EEEV trans-replicase (P1234) (Eastern equine encephalitis virus, UniProt Q306W6); assay type: cell-based
[12] = target: WEEV trans-replicase (P1234) (Western equine encephalitis virus, UniProt P13896); assay type: cell-based
[13] = target: VEEV trans-replicase (P1234) (Venezuelan equine encephalitis virus, UniProt P36328); assay type: cell-based
[14] = system: EILV trans-replicase (P1234); test: Trans-replicase assay, EILV; assay type: cell-based, Eilat virus; conditions: 100 µM, U-2 OS, 20 h
Description: as §1

CHIKV-nLuc [15] = assay type: cell-based, Chikungunya virus; conditions: 20 µM, U-2 OS, reporter read at 24 h
CHIKV replicon = conditions: read-out: Antiviral potency (EC50 [µM]) CHKV replicon; replicon cells
U-2 OS cells [16] = system: U-2 OS cells

T4 sequence (P03317 whole entry): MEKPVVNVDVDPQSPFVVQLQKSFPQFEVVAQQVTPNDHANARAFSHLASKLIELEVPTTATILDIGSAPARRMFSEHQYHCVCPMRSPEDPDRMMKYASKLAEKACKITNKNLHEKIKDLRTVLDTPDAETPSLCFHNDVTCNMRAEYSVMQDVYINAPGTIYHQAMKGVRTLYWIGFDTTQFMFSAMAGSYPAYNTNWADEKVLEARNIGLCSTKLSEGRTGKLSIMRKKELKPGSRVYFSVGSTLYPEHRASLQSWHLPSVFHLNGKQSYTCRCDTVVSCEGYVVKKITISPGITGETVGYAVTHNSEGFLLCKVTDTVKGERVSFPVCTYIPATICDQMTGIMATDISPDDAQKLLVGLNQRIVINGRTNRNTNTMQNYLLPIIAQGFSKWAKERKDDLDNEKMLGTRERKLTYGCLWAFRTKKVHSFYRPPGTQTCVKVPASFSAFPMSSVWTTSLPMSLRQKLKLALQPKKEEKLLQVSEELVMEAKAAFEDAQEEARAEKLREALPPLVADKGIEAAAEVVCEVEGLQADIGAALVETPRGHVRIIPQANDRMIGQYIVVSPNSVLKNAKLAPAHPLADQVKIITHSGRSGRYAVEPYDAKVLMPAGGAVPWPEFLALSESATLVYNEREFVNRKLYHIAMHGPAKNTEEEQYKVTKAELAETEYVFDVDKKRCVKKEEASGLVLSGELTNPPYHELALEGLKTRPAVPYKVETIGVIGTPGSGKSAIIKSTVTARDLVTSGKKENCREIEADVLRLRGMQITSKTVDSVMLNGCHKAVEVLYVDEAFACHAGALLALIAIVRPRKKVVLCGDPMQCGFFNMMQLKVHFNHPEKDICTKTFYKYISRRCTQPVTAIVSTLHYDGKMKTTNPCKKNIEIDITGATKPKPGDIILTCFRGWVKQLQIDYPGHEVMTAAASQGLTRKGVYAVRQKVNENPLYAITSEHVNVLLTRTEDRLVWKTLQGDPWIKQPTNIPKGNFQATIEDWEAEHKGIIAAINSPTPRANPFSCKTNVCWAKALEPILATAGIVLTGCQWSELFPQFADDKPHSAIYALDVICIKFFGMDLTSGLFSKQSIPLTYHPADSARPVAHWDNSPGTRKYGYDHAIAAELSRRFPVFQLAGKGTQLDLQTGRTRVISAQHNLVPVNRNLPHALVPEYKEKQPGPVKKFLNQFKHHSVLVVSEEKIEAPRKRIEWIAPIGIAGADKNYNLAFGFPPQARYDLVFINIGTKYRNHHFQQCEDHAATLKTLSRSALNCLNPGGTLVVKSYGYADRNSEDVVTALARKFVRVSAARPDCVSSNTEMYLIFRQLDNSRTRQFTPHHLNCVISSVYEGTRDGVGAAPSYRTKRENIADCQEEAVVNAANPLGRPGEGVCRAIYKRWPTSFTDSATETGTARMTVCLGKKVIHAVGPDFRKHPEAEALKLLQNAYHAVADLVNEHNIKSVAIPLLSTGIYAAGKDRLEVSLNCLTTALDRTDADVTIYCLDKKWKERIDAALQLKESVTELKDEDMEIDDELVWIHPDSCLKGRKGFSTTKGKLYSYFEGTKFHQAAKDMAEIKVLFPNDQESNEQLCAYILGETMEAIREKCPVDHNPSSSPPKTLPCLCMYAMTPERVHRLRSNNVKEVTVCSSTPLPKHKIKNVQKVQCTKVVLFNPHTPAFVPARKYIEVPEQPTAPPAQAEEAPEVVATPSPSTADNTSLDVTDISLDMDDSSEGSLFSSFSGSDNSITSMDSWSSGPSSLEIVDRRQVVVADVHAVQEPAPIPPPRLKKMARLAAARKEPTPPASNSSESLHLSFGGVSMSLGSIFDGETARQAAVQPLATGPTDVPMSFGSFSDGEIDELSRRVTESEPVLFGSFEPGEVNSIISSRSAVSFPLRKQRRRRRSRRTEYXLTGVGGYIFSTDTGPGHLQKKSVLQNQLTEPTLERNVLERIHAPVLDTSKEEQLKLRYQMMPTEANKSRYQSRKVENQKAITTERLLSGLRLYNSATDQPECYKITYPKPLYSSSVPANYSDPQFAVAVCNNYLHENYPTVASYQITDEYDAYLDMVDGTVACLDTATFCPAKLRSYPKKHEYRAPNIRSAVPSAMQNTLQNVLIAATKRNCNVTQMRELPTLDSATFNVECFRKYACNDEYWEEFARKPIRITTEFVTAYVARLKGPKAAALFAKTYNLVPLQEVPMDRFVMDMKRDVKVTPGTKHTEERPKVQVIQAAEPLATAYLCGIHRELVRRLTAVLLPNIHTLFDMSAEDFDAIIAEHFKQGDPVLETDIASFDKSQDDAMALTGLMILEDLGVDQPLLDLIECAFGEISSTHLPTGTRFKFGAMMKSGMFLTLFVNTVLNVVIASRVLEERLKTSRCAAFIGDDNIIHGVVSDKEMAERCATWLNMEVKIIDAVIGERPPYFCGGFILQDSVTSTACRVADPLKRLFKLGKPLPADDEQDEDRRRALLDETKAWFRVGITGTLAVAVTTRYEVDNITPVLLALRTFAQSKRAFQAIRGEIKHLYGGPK
T4 sequence (P03317 1-540 partner limits assumed): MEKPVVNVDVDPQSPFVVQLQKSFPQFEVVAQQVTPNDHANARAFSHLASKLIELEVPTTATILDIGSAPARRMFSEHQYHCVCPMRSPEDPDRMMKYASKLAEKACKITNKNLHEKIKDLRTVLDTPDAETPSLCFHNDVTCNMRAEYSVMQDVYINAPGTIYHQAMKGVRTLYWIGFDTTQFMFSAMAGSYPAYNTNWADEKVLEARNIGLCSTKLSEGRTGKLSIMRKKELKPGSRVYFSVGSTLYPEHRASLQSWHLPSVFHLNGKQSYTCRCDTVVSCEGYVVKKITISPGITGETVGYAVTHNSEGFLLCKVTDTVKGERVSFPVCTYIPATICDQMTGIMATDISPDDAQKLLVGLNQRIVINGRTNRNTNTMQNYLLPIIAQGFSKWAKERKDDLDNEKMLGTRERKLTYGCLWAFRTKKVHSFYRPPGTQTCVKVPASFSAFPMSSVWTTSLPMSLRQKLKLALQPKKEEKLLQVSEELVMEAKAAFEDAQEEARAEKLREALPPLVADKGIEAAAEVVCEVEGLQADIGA
T4 sequence (P03317 541-1347 partner limits assumed): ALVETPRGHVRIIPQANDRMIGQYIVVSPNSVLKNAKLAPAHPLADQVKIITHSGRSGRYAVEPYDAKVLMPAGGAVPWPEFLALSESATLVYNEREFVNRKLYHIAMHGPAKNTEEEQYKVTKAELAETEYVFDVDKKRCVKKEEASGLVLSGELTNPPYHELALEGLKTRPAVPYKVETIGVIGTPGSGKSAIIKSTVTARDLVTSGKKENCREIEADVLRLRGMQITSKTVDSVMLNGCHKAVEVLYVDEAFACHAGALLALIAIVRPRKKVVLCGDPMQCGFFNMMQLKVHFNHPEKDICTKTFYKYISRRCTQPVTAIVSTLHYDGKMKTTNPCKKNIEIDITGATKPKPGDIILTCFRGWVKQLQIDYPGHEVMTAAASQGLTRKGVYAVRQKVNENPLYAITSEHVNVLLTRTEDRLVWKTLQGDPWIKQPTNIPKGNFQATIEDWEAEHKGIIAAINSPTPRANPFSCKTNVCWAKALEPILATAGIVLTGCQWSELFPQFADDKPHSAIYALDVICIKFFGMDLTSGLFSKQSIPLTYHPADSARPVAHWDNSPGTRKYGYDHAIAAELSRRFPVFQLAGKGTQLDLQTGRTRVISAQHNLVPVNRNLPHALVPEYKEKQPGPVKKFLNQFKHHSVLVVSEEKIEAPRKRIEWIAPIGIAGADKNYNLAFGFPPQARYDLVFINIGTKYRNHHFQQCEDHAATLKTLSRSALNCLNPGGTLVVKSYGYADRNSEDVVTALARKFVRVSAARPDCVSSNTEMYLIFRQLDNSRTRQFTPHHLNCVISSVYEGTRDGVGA

Substance: N-[2-(4-fluorophenyl)ethyl]-1,5-dimethyl-N-[(2-methylpyrazol-3-yl)methyl]pyrazole-4-sulfonamide [GAP-1146924]
- Normalized percent inhibition in primary screen [1]: 91.8%
- EC50 (VEEV-TC83-nLuc): 35.2 µM
- EC50 (SINV-GLuc): > 100 µM
- EC50 (HPIV3-nLuc): > 100 µM
- EC50 (SARS-CoV-2-nLuc): > 100 µM
- EC50 (RSV A2-L19F): > 10 µM
- EC50 (VSV-nLuc): > 100 µM
- EC50 (CHIKV-nLuc [2]): 23.4 ± 2.44 µM
- EC50 (CHIKV-nLuc [3]): 9.33 µM
- CC50 (U-2 OS cells [4]): > 500 µM
- CC50 (NHDF cells): > 500 µM
- EC50 (CHIKV 181/25; MOI 0.1, supernatant 24 hpi titered by FFA (Fig. 5), read-out: EC50 virus production, CHIKV): 16.5 ± 3.99 µM
- EC50 (CHIKV 181/25; resistance study (Fig. 7), read-out: EC50 virus production, CHIKV WT): 19.7 ± 7.78 µM
- EC50 (ONNV): 6.09 ± 2.2 µM
- EC50 (RRV): > 100 µM
- EC50 (SINV): > 100 µM
- EC50 (MAYV): 13 ± 5.14 µM
- EC50 (SFV): > 100 µM
- Effect on RNA replication (GLuc) in trans-replicase assay, CHIKV [5]: inhibited RNA replication
- Effect on RNA replication (GLuc) in trans-replicase assay, ONNV [6]: inhibited RNA replication
- Effect on RNA replication (GLuc) in trans-replicase assay, RRV [7]: some GAP-1146924 inhibition
- Effect on RNA replication (GLuc) in trans-replicase assay, SINV [8]: some GAP-1146924 inhibition
- Effect on RNA replication (GLuc) in trans-replicase assay, SFV [9]: some GAP-1146924 inhibition
- Effect on RNA replication (GLuc) in trans-replicase assay, BFV [10]: inhibited RNA replication
- Effect on RNA replication (GLuc) in trans-replicase assay, EEEV [11]: some inhibition
- Effect on RNA replication (GLuc) in trans-replicase assay, WEEV [12]: some inhibition
- Effect on RNA replication (GLuc) in trans-replicase assay, VEEV [13]: some inhibition
- Effect on RNA replication (GLuc) in trans-replicase assay, EILV [14]: some inhibition
- Time-of-addition profile (stage of replication targeted) (CHIKV-nLuc [15]): act on a stage after viral entry
- EC50 (CHIKV replicon): 9.2 µM
- CC50 (VeroE6 cells): > 100 µM
- CC50 (U-2 OS cells [16]): > 100 µM
